# Results taken from paper PMC8376931, “Structure activity relationships and the binding mode of quinolinone-pyrimidine hybrids as reversal agents of multidrug resistance mediated by P-gp” (Scientific Reports, 2021).
# Read-outs that look alike come from different tables or passages of the source.
# Experiments:
# [1] = biological target: T1, P-gp (Homo sapiens, UniProt P08183); details: 1 h
# Description: (§1) The intracellular accumulation of the fluorescent probes, Dox and Rho123, was determined by monitoring its fluorescence intensity using flow cytometry (96-well plate format), as previously reported. The inhibition on the outward transport of these P-gp substrates results in an increased […] fluorescence intensity (MFI). […] Those compounds showing inhibition on P-gp at the maximum tested concentration were further evaluated at serial dilutions to determinate their MECs. […] The plates were then incubated in a 5% CO2 incubator for 1 h at 37 °C. Afterwards, 5 μM Dox was added to each well. The other fluorescent specific substrate of P-gp, Rho123, however, was added at 500 ng/mL to additionally measure the ability of the most promising compounds to block its efflux. Subsequently, cells from both assays were washed twice with cold PBS, and 15,000 events from each sample were analyzed to determine the cell-associated fluorescence. Dead cells were eliminated by means of forward- and side-scatter parameters. […] The blocking of the P-gp transport function was evaluated by the parameter FIR, calculated as the ratio of the MFI of Dox or Rho123 with the addition of the likely inhibitor to the MFI of Dox or Rho123 alone.
# [2] = tested on: K562 cells; test: Doxorubicin intracellular accumulation assay (flow cytometry) in K562; assay type: cell-based; set-up: key: MFI with inhibitor / MFI of Dox alone; details: compound 20 µM; 5 μM Dox
# Description: as §1
# [3] = biological target: T1, P-gp; details: human, 1 h; for FIR Rho123: 0.62 µM; for FIR Rho123 (fold more Rho123 than untreated cells): 20 µM
# Description: The intracellular accumulation of the fluorescent probes, Dox and Rho123, was determined by monitoring its fluorescence intensity using flow cytometry (96-well plate format), as previously reported. The inhibition on the outward transport of these P-gp substrates results in an increased […] fluorescence intensity (MFI). […] The plates were then incubated in a 5% CO2 incubator for 1 h at 37 °C. Afterwards, 5 μM Dox was added to each well. The other fluorescent specific substrate of P-gp, Rho123, however, was added at 500 ng/mL to additionally measure the ability of the most promising compounds to block its efflux. Subsequently, cells from both assays were washed twice with cold PBS, and 15,000 events from each sample were analyzed to determine the cell-associated fluorescence. Dead cells were eliminated by means of forward- and side-scatter parameters. […] The blocking of the P-gp transport function was evaluated by the parameter FIR, calculated as the ratio of the MFI of Dox or Rho123 with the addition of the likely inhibitor to the MFI of Dox or Rho123 alone.
# [4] = tested on: K562 cells; test: Rhodamine 123 intracellular accumulation assay in K562; assay type: cell-based; details: 20 μM
# Description: as §1
# [5] = tested on: K562 cells; test: MTT cytotoxicity assay in K562; assay type: cell-based; details: 48 h
# Description: (§2) Then 0.5 mg/mL MTT in PBS was added. After additional incubation for 4 h, the formazan crystals obtained were dissolved in DMSO and the absorbance at 595 nm was read on an iMark micro-plate reader (Bio-Rad, USA). IC50 values for cytotoxicity were then calculated as reported[50] using nonlinear regression by GraphPad Prism 7 (Graphpad Software, Inc., San Diego, CA, USA, www.graphpad.com).
# (§3) The cells were incubated at 37 °C at 5% CO2 for 48 h and the same protocol described above was followed. IC50 values of Dox were then obtained.
# [6] = tested on: Lucena 1 cells; test: MTT cytotoxicity assay in Lucena 1; assay type: cell-based; details: 48 h
# Description: as §2, §3
# [7] = tested on: Lucena 1 cells; test: Doxorubicin resistance reversal assay; assay type: cell-based; details: for lowest co-administered concentration significantly increasing doxorubicin toxicity: p < 0.05
# Description: as §3
# [8] = tested on: PBMC; test: Cytotoxicity on peripheral blood mononuclear cells (MTT); assay type: cell-based; details: Homo sapiens, 48 h, PHA 10 μg/mL, read-out: inhibition on proliferation of PBMC
# Description: (§4) PBMC were isolated from heparinized blood of healthy volunteers by density centrifugation using Ficoll-Hypaque separation. Ethical approval was provided by the Catholic University of Córdoba Research Ethics Board and informed consents were obtained from all donors. Briefly, 1 × 10^5 PBMC/well were incubated with the tested compounds at concentrations ranging from 2.5 to 20 µM in the presence of 10 μg/mL PHA, or with 1% DMSO as control. After 48 h incubation, MTT was added and the same protocol described above was followed to calculate the IC50 values. An erythrocyte hemolysis assay was carried out following previous procedures[8] with the compounds assayed at 2.5 to 20 µM.
# [9] = tested on: erythrocytes; test: Erythrocyte hemolysis assay; assay type: cell-based; details: assayed at 2.5 to 20 µM
# Description: as §4
# [10] = tested on: SphK1; details: previously found; read-out: IC50 against SphK1; cited from earlier work
# [11] = tested on: SphK2; details: previously found; read-out: IC50 against SphK2; cited from earlier work
# [12] = compound 1.25 µM, FR = IC50 Dox/IC50 Dox with compound, 48 h
# T1 sequence (P08183 whole entry): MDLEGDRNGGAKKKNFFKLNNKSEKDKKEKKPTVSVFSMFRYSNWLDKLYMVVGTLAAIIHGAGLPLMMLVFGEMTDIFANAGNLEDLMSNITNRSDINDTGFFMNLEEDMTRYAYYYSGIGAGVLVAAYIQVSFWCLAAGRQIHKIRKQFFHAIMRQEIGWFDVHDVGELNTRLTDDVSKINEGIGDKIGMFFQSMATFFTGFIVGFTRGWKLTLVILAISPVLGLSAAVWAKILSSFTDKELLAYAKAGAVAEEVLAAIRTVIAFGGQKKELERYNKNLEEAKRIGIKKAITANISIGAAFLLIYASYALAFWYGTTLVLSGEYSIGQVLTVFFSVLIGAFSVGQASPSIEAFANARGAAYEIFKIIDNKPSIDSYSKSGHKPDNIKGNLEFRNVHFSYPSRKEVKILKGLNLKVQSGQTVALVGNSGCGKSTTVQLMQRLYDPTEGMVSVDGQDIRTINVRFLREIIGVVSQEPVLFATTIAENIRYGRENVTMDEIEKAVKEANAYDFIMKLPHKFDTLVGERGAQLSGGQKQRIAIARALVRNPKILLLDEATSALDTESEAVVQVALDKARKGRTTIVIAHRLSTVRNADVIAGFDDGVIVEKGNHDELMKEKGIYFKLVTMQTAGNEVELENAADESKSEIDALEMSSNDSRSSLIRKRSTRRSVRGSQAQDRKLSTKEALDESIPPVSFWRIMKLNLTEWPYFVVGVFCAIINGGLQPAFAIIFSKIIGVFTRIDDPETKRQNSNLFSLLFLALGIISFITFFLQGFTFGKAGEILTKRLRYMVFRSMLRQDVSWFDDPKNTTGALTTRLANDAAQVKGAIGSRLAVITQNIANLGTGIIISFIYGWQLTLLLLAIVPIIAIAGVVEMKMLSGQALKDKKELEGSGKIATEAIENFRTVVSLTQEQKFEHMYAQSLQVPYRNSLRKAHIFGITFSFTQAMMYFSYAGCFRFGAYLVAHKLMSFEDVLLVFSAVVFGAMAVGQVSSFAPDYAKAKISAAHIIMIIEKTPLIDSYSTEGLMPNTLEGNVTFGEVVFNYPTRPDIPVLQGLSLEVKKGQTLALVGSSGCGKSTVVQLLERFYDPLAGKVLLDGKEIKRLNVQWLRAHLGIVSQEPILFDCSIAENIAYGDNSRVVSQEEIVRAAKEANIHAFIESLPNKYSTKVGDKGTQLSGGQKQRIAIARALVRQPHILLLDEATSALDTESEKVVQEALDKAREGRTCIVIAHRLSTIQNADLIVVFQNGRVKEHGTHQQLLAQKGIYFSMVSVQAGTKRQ
smiles,measurement,setting,value
COc1cc2cc(CNc3ccc(Nc4nccc(-c5ccc6ccccc6c5)n4)cc3)c(=O)[nH]c2cc1OC [Compound 5c],"minimum effective concentration (MEC), Dox accumulation",[1],0.31 µM
same,FIR Lucena 1,[1]; 0.16 µM,0.99 ± 0.07
same,FIR Lucena 1,[1]; 0.31 µM,1.12 ± 0.02
same,FIR Lucena 1,[1]; 0.62 µM,1.29 ± 0.08
same,FIR Lucena 1,[1]; 1.25 µM,1.22 ± 0.03
same,FIR Lucena 1,[1]; 2.5 µM,1.26 ± 0.01
same,FIR Lucena 1,[1]; 5 µM,1.23 ± 0.05
same,FIR Lucena 1,[1]; 10 µM,1.24 ± 0.10
same,FIR Lucena 1,[1]; 20 µM,1.42 ± 0.09
same,FIR K562,[2],0.95 ± 0.02
same,"minimum effective concentration (MEC), Rho123 accumulation",[3],0.62 µM
same,FIR Rho123,[3],1.36 ± 0.04
same,FIR Rho123 (fold more Rho123 than untreated cells),[3],2.72 ± 0.10
same,Rho123 accumulation in K562 (result in words),[4],no increase
same,IC50 (cytotoxicity) against K562,[5],non-toxic
same,IC50 (cytotoxicity) against Lucena 1,[6],non-toxic
same,fold reversal (FR) of Dox resistance,[7]; compound 40 nM,1.30 ± 0.05
same,fold reversal (FR) of Dox resistance,[7]; [12],5.16 ± 0.60
same,lowest co-administered concentration significantly increasing doxorubicin toxicity,[7],0.04 µM
same,inhibition at 20 µM,[8],21%
same,concentrations at which the erythrocyte membrane was not altered,[9],lower than 10 µM
COc1ccc2[nH]c(=O)c(CN3CCN(c4nccc(-c5ccc6ccccc6c5)n4)CC3)cc2c1 [Compound 7b],"minimum effective concentration (MEC), Dox accumulation",[1],0.31 µM
same,FIR Lucena 1,[1]; 0.16 µM,1.04 ± 0.02
same,FIR Lucena 1,[1]; 0.31 µM,1.10 ± 0.01
same,FIR Lucena 1,[1]; 0.62 µM,1.21 ± 0.01
same,FIR Lucena 1,[1]; 1.25 µM,1.18 ± 0.03
same,FIR Lucena 1,[1]; 2.5 µM,1.26 ± 0.04
same,FIR Lucena 1,[1]; 5 µM,1.26 ± 0.04
same,FIR Lucena 1,[1]; 10 µM,1.25 ± 0.04
same,FIR Lucena 1,[1]; 20 µM,1.43 ± 0.10
same,FIR K562,[2],0.88 ± 0.02
same,"minimum effective concentration (MEC), Rho123 accumulation",[3],0.62 µM
same,FIR Rho123,[3],1.37 ± 0.06
same,FIR Rho123 (fold more Rho123 than untreated cells),[3],3.05 ± 0.16
same,Rho123 accumulation in K562 (result in words),[4],no increase
same,IC50 (cytotoxicity) against K562,[5],non-toxic
same,IC50 (cytotoxicity) against Lucena 1,[6],non-toxic
same,fold reversal (FR) of Dox resistance,[7]; compound 80 nM,1.51 ± 0.23
same,fold reversal (FR) of Dox resistance,[7]; [12],6.90 ± 2.84
same,lowest co-administered concentration significantly increasing doxorubicin toxicity,[7],0.08 µM
same,inhibition at 20 µM,[8],12%
same,concentrations at which the erythrocyte membrane was not altered,[9],< 20 µM
same,IC50,[10],> 650 µM
same,IC50,[11],> 650 µM
